Test results as given in US4132846A.
≈ marks a conversion by molar mass, not a printed value. Like-named read-outs stand apart in the source and are kept apart here.

Key:
[1] = test system: Proteus vulgaris ATCC 6897; assay: microbe, parasite or virus in culture; assay type: cell-based; details: ATCC6897, pH 8, read-out: minimum Inhibitory Concentration
Escherichia coli T-5 = assay: MIC, agar dilution method at pH 7.2; assay type: cell-based; details: T5, read-out: Minimum Inhibitory Concentration
Description: (§1) Anti-bacterial Spectrum (Minimum Inhibitory Concentration, mcg/ml)

Proteus morganii KY 4298 = assay: MIC, agar dilution method at pH 7.2; assay type: cell-based; details: Morganella morganii, KY4298, pH 7.2, read-out: Minimum Inhibitory Concentration
Description: as §1

[2] = test system: Klebsiella pneumoniae No. 8045; assay: MIC, agar dilution method at pH 7.2; assay type: cell-based; details: read-out: Minimum Inhibitory Concentration
Description: as §1

Sarcina lutea ATCC 9341 = assay: MIC, agar dilution method at pH 7.2; assay type: cell-based; details: Micrococcus luteus, ATCC9341, read-out: Minimum Inhibitory Concentration
Description: as §1

Proteus mirabilis 1287 = assay: MIC, agar dilution method at pH 7.2; assay type: cell-based; details: read-out: Minimum Inhibitory Concentration
Description: as §1

[3] = test system: Staphylococus aureus Smith; assay: MIC, agar dilution method at pH 7.2; assay type: cell-based
Description: as §1

Proteus vulgaris 6897 = assay: MIC, agar dilution method at pH 7.2; assay type: cell-based
Description: as §1

[4] = test system: Bacillus subtilis ATCC 6633; assay: MIC, agar dilution method at pH 7.2; assay type: cell-based; details: ATCC6633, read-out: Minimum Inhibitory Concentration
Description: as §1

Escherichia coli T-2 = assay: MIC, agar dilution method at pH 7.2; assay type: cell-based; details: T2, read-out: Minimum Inhibitory Concentration
Description: as §1

[5] = test system: Staphylococcus aureus 209 P; assay: MIC, agar dilution method at pH 7.2; assay type: cell-based; details: read-out: Minimum Inhibitory Concentration
Description: as §1

[6] = test system: Pseudomonas aeruginosa BMH 1; assay: MIC, agar dilution method at pH 7.2; assay type: cell-based; details: BMH1, read-out: Minimum Inhibitory Concentration
Description: as §1

[7] = test system: Shigella sonnei ATCC 9290; assay: microbe, parasite or virus in culture; assay type: cell-based; details: ATCC9290, agar dilution, pH 8.0, read-out: minimum Inhibitory Concentration
Proteus rettgeri KY 4288 = assay: MIC, agar dilution method at pH 7.2; assay type: cell-based; details: Providencia rettgeri, KY4288, pH 7.2, read-out: Minimum Inhibitory Concentration
Providencia sp. 164 = assay: MIC, agar dilution method at pH 7.2; assay type: cell-based; details: Providencia sp. 164 (gentamicin acetyltransferase Type II), read-out: Minimum Inhibitory Concentration
Escherichia coli KY 8321 = assay: MIC, agar dilution method at pH 7.2; assay type: cell-based; details: KY8321, Escherichia coli KY 8321 (gentamicin adenyltransferase and neomycin-kanamycin phosphotransferase Type II), read-out: Minimum Inhibitory Concentration
Description: ^2 produces gentamicin adenyltransferase and neomycin-kanamycin
phosphotransferase Type II

[8] = test system: Staphylococcus aureus ATC 6538P; assay: MIC, agar dilution method at pH 8.0; assay type: cell-based; details: ATC6538P
[9] = test system: Bacillus subtilis No. 10707; assay: MIC, agar dilution method at pH 8.0; assay type: cell-based
[10] = test system: Salmonella typhosa ATCC 9992; assay: MIC, agar dilution method at pH 8.0; assay type: cell-based; details: Salmonella enterica, pH 8, read-out: minimum Inhibitory Concentration
[11] = test system: Pseudomonas aeruginosa KY 8516; assay: MIC, agar dilution method at pH 7.2; assay type: cell-based; details: KY8516, Pseudomonas aeruginosa KY 8516 (probably kanamycin acetyltransferase), read-out: Minimum Inhibitory Concentration
[12] = test system: Pseudomonas aeruginosa KY 8511; assay: MIC, agar dilution method at pH 7.2; assay type: cell-based; details: KY8511, Pseudomonas aeruginosa KY 8511 (gentamicin acetyltransferase Type I and neomycin-kanamycin phosphotransferase Type I), read-out: Minimum Inhibitory Concentration
Description: ^6 produces gentamicin acetyltransferase Type I and neomycin-kanamyci

Escherichia coli ATC 26 = assay: MIC, agar dilution method at pH 8.0; assay type: cell-based; details: ATC26, read-out: minimum Inhibitory Concentration
[13] = test system: Klebsiella pneumoniae ATCC 10031; assay: MIC, agar dilution method at pH 8.0; assay type: cell-based; details: ATCC10031, pH 8, read-out: minimum Inhibitory Concentration
[14] = test system: Pseudomonas aeruginosa KY 8512; assay: MIC, agar dilution method at pH 7.2; assay type: cell-based; details: KY8512, Pseudomonas aeruginosa KY 8512 (neomycin-kanamycin phosphotransferase Type I and II, streptomycin phosphotransferase), read-out: Minimum Inhibitory Concentration
Description: as §1
^7 produces neomycin-kanamycin phosphotransferase Type I and Type II
and streptomycin phosphotransferase

Escherichia coli KY 8348 [15] = assay: MIC, agar dilution method at pH 7.2; assay type: cell-based; details: KY8348, Escherichia coli KY 8348 (gentamicin acetyltransferase Type I), read-out: Minimum Inhibitory Concentration
[16] = test system: Pseudomonas aeruginosa KY 8510; assay: MIC, agar dilution method at pH 7.2; assay type: cell-based; details: KY8510, Pseudomonas aeruginosa KY 8510 (kanamycin acetyltransferase), read-out: Minimum Inhibitory Concentration
Escherichia coli KY 8327 [17] = assay: MIC, agar dilution method at pH 7.2; assay type: cell-based; details: KY8327, Escherichia coli KY 8327 (produces gentamicin adenyltransferase), read-out: Minimum Inhibitory Concentration
Description: as §1
^1 produces gentamicin adenyltransferase

Escherichia coli KY 8349 = assay: MIC, agar dilution method at pH 7.2; assay type: cell-based; details: KY8349, Escherichia coli KY 8349 (neomycin-kanamycin phosphototransferase Type I), read-out: Minimum Inhibitory Concentration
Description: ^4 produces neomycin-kanamycin phosphototransferase Type I

Escherichia coli KY 8348 [18] = assay: MIC, agar dilution method at pH 8.0; assay type: cell-based; details: KY8348, Escherichia coli KY 8348 (produces gentamicin acetyltransferase Type I), read-out: minimum Inhibitory Concentration
Description: (§2) The former bacterium inactivates kanamycins and gentamicins by adenylation, and the latter inactivates gentamicins by acetylation.

Escherichia coli KY 8327 [19] = assay: MIC, agar dilution method at pH 8.0; assay type: cell-based; details: KY8327, Escherichia coli KY 8327 (produces gentamicin adenyltransferase), read-out: minimum Inhibitory Concentration
Description: as §2

[20] = test system: Pseudomonas aeruginosa BMH 1; assay: MIC, agar dilution method at pH 8.0; assay type: cell-based; details: BMH1, read-out: minimum Inhibitory Concentration
[21] = in water and methanol; cited from earlier work
[22] = Staphylococus aureus Smith, agar dilution, pH 7.2, read-out: Minimum Inhibitory Concentration
[23] = Staphylococcus aureus ATC 6538P, agar dilution, pH 8.0, read-out: minimum Inhibitory Concentration
[24] = Bacillus subtilis No. 10707, agar dilution, pH 8.0, read-out: minimum Inhibitory Concentration
[25] = Proteus vulgaris 6897, agar dilution, pH 7.2, read-out: Minimum Inhibitory Concentration
[26] = Staphylococcus aureus, pH 8, read-out: minimum Inhibitory Concentration
[27] = Bacillus subtilis, NO.10707, pH 8, read-out: minimum Inhibitory Concentration

Compound | MIC [1] | MIC [2] | MIC (Proteus mirabilis 1287) | MIC [4] | MIC [5] | MIC [6] | MIC [7] | MIC (Providencia sp. 164) | MIC (Escherichia coli KY 8321) | MIC [10] | MIC [12] | MIC (Escherichia coli ATC 26) | MIC [13] | MIC [14] | MIC (Escherichia coli KY 8348 [15]) | MIC [16] | MIC (Escherichia coli KY 8327 [17]) | MIC (Escherichia coli KY 8349) | MIC (Escherichia coli KY 8348 [18]) | MIC (Escherichia coli KY 8327 [19]) | further results
CNCC1CCC(N)C(OC2C(N)CC(NC(=O)C(O)CN)C(OC3OCC(C)(O)C(NC)C3O)C2O)O1 (racemic) [DL-form] | 0.033 µg/mL (≈ 0.0599 µM) | 0.2 µg/mL (≈ 0.363 µM) | 3.12 µg/mL (≈ 5.67 µM) | 0.1 µg/mL (≈ 0.182 µM) | 0.1 µg/mL (≈ 0.182 µM) | 1.56 µg/mL (≈ 2.83 µM) | 0.016 µg/mL (≈ 0.0291 µM) | 12.5 µg/mL (≈ 22.7 µM) | 0.2 µg/mL (≈ 0.363 µM) | 0.004 µg/mL (≈ 0.00726 µM) | 3.12 µg/mL (≈ 5.67 µM) | 0.008 µg/mL (≈ 0.0145 µM) | 0.033 µg/mL (≈ 0.0599 µM) | 0.78 µg/mL (≈ 1.42 µM) | 0.2 µg/mL (≈ 0.363 µM) | 3.12 µg/mL (≈ 5.67 µM) | 0.4 µg/mL (≈ 0.726 µM) | 0.2 µg/mL (≈ 0.363 µM) | 0.004 µg/mL (≈ 0.00726 µM) | 0.004 µg/mL (≈ 0.00726 µM) | MIC (Escherichia coli T-5): 0.4 µg/mL (≈ 0.726 µM); MIC (Proteus morganii KY 4298): 0.78 µg/mL (≈ 1.42 µM); MIC (Sarcina lutea ATCC 9341): 0.4 µg/mL (≈ 0.726 µM); MIC [3, 22]: 0.05 µg/mL (≈ 0.0908 µM); MIC (Proteus vulgaris 6897; Proteus vulgaris, 6897, pH 7.2, read-out: Minimum Inhibitory Concentration): 3.12 µg/mL (≈ 5.67 µM); MIC (Escherichia coli T-2): 0.4 µg/mL (≈ 0.726 µM); MIC (Proteus rettgeri KY 4288): 0.78 µg/mL (≈ 1.42 µM); MIC [8, 23]: 0.065 µg/mL (≈ 0.118 µM); MIC [9, 24]: 0.008 µg/mL (≈ 0.0145 µM); MIC [11]: 3.12 µg/mL (≈ 5.67 µM); MIC [20]: 1.04 µg/mL (≈ 1.89 µM)
CNCC1CCC(N)C(OC2C(N)CC(NC(=O)[C@H](O)CN)C(OC3OCC(C)(O)C(NC)C3O)C2O)O1 (stereo partly drawn) [D-form] | 0.033 µg/mL (≈ 0.0599 µM) | 0.2 µg/mL (≈ 0.363 µM) | 3.12 µg/mL (≈ 5.67 µM) | 0.05 µg/mL (≈ 0.0908 µM) | 0.05 µg/mL (≈ 0.0908 µM) | 1.56 µg/mL (≈ 2.83 µM) | 0.008 µg/mL (≈ 0.0145 µM) | 6.25 µg/mL (≈ 11.4 µM) | 0.2 µg/mL (≈ 0.363 µM) | 0.004 µg/mL (≈ 0.00726 µM) | 3.12 µg/mL (≈ 5.67 µM) | 0.004 µg/mL (≈ 0.00726 µM) | 0.004 µg/mL (≈ 0.00726 µM) | 1.56 µg/mL (≈ 2.83 µM) | 0.2 µg/mL (≈ 0.363 µM) | 3.12 µg/mL (≈ 5.67 µM) | 0.2 µg/mL (≈ 0.363 µM) | 0.2 µg/mL (≈ 0.363 µM) | 0.004 µg/mL (≈ 0.00726 µM) | 0.004 µg/mL (≈ 0.00726 µM) | MIC (Proteus vulgaris 6897; [25]): 0.78 µg/mL (≈ 1.42 µM); MIC (Escherichia coli T-2): 0.2 µg/mL (≈ 0.363 µM); MIC [8, 26]: 0.004 µg/mL (≈ 0.00726 µM); MIC [9, 27]: 0.004 µg/mL (≈ 0.00726 µM); MIC [20]: 2.08 µg/mL (≈ 3.78 µM)
NC[C@H]1O[C@H](O[C@H]2[C@H](O)[C@@H](O[C@H]3O[C@H](CO)[C@@H](O)[C@H](N)[C@H]3O)[C@H](N)C[C@@H]2N)[C@H](O)[C@@H](O)[C@@H]1O [Kanamycin A, kanamycin A, reference compound] |  |  |  |  |  |  |  |  |  | 0.08 µg/mL (≈ 0.165 µM) |  |  |  |  |  |  |  |  |  |  | MIC ([3]; pH 7.2, read-out: Minimum Inhibitory Concentration): 0.2 µg/mL (≈ 0.413 µM)
CNCC1CCC(N)C(OC2C(N)CC(NC(=O)[C@@H](O)CN)C(OC3OCC(C)(O)C(NC)C3O)C2O)O1 (stereo partly drawn) [L-form] | 0.033 µg/mL (≈ 0.0599 µM) | 0.2 µg/mL (≈ 0.363 µM) | 3.12 µg/mL (≈ 5.67 µM) | 0.05 µg/mL (≈ 0.0908 µM) | 0.05 µg/mL (≈ 0.0908 µM) | 1.56 µg/mL (≈ 2.83 µM) | 0.008 µg/mL (≈ 0.0145 µM) | 6.25 µg/mL (≈ 11.4 µM) | 0.4 µg/mL (≈ 0.726 µM) | 0.004 µg/mL (≈ 0.00726 µM) | 3.12 µg/mL (≈ 5.67 µM) | 0.004 µg/mL (≈ 0.00726 µM) | 0.004 µg/mL (≈ 0.00726 µM) | 0.78 µg/mL (≈ 1.42 µM) | 0.2 µg/mL (≈ 0.363 µM) | 3.12 µg/mL (≈ 5.67 µM) | 0.2 µg/mL (≈ 0.363 µM) | 0.2 µg/mL (≈ 0.363 µM) | 0.004 µg/mL (≈ 0.00726 µM) | 0.004 µg/mL (≈ 0.00726 µM) | MIC (Proteus vulgaris 6897; [25]): 1.56 µg/mL (≈ 2.83 µM); MIC [8, 26]: 0.004 µg/mL (≈ 0.00726 µM); MIC [9, 27]: 0.004 µg/mL (≈ 0.00726 µM); MIC [20]: 1.04 µg/mL (≈ 1.89 µM)
CNC[C@@H]1CC[C@@H](N)[C@@H](O[C@H]2[C@H](O)[C@@H](O[C@H]3OC[C@](C)(O)[C@H](NC)[C@H]3O)[C@H](N)C[C@@H]2N)O1 [XK-62-2, reference compound] |  |  |  |  |  |  |  |  |  |  |  |  |  |  |  |  |  |  |  |  | MIC [3, 22]: < 0.05 µg/mL; MIC [8, 23]: 0.008 µg/mL (≈ 0.0173 µM); MIC [9, 24]: 0.004 µg/mL (≈ 0.00863 µM); solubility [21]: freely soluble
